Reference: patent publication US8962596B2 (Array BioPharma Inc., priority 2010, dated 2015)

Legend:
Assay type in all cases: biochemical
[1] = molecular target: T1, JAK3 (Homo sapiens, UniProt P52333); assay: JAK3 Inhibition Assay (Omnia kinase fluorescence peptide substrate assay); details: averaged IC50 ranges; assay of Example D; 10 μM (Km app) or 1 mM ATP, 2.5 nM JAK3
T1 construct: purchased Invitrogen Corporation, Carlsbad, Calif; PV4080
T1 sequence (P52333 1-1124): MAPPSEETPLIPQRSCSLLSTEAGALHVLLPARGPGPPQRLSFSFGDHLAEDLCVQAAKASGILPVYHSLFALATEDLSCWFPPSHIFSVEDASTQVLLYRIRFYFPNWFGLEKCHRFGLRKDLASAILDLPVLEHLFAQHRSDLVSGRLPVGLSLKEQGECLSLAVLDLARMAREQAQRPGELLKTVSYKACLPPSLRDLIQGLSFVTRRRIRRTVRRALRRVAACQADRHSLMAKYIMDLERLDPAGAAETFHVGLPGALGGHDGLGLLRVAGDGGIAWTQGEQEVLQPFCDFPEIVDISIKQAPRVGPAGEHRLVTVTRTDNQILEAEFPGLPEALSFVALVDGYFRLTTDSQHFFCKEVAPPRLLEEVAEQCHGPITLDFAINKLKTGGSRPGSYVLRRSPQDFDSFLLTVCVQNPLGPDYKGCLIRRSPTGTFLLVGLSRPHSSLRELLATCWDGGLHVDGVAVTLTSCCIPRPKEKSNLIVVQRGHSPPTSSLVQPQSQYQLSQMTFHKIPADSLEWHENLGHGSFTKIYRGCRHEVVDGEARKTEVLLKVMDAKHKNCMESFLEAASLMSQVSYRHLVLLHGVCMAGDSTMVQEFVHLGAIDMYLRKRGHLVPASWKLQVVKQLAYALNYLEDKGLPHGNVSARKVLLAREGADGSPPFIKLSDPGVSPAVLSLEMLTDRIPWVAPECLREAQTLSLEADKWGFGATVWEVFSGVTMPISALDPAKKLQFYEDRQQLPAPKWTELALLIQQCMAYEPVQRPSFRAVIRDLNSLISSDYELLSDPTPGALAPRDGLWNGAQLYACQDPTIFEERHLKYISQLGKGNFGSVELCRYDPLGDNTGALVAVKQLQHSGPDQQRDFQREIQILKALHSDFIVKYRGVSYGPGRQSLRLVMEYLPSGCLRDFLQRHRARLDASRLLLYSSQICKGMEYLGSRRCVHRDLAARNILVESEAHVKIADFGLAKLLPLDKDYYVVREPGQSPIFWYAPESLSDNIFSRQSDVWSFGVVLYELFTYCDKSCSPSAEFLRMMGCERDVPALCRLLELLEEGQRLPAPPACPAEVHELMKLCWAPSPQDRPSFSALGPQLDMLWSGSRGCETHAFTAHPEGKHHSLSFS
Procedure, shortened: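 Kinase at 2.5 nM with 10 µM Omnia Y7 peptide and 10 µM (Km app) or 1 mM ATP in 25 mM HEPES pH 7.4, 10 mM MgCl2, 1 mM DTT, 0.01% Triton X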

[2] = molecular target: T2, JAK1 (Homo sapiens, UniProt P23458); assay: JAK1 Inhibition Assay (Omnia kinase fluorescence peptide substrate assay); details: averaged IC50 ranges; assay of Example B; 40 μM (Km app) or 1 mM ATP, 15 nM JAK1
T2 construct: purchased Invitrogen Corporation, Carlsbad, Calif; PV4775
T2 sequence (P23458 whole entry): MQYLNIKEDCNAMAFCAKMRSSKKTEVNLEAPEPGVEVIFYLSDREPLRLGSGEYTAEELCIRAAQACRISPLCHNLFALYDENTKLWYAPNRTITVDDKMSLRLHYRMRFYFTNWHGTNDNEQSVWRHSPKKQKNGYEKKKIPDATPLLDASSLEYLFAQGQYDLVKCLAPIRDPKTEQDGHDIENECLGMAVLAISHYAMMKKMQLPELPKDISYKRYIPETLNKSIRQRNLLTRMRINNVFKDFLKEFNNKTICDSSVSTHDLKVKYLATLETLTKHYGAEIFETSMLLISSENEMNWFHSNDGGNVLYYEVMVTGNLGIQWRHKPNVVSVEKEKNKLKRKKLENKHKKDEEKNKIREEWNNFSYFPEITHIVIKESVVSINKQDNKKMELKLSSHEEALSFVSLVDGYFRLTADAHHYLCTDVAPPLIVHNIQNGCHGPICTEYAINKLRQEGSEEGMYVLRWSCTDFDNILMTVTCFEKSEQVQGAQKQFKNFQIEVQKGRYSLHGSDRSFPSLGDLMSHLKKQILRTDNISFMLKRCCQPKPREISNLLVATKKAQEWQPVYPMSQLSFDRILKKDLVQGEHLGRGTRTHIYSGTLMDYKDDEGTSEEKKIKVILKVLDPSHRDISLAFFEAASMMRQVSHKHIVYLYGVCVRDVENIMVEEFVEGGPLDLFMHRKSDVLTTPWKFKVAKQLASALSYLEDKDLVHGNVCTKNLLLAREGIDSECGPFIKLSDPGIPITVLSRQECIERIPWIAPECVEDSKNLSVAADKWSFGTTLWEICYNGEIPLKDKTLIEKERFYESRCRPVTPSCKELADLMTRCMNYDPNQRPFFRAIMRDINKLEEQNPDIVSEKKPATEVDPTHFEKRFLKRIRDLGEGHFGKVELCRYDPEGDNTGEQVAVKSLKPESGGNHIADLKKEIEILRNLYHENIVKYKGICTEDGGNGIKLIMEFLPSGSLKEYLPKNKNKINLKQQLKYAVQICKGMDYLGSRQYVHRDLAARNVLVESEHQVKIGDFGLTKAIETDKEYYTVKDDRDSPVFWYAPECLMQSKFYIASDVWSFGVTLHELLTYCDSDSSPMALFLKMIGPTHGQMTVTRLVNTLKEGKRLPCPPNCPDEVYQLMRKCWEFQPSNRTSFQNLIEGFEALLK

[3] = molecular target: T3, JAK2 (Homo sapiens, UniProt O60674); assay: JAK2 Inhibition Assay (Omnia kinase fluorescence peptide substrate assay); details: averaged IC50 ranges; assay of Example C; 25 μM (Km app) or 1 mM ATP, 5 nM JAK2
T3 construct: purchased Invitrogen Corporation, Carlsbad, Calif; PV4288
T3 sequence (O60674 whole entry): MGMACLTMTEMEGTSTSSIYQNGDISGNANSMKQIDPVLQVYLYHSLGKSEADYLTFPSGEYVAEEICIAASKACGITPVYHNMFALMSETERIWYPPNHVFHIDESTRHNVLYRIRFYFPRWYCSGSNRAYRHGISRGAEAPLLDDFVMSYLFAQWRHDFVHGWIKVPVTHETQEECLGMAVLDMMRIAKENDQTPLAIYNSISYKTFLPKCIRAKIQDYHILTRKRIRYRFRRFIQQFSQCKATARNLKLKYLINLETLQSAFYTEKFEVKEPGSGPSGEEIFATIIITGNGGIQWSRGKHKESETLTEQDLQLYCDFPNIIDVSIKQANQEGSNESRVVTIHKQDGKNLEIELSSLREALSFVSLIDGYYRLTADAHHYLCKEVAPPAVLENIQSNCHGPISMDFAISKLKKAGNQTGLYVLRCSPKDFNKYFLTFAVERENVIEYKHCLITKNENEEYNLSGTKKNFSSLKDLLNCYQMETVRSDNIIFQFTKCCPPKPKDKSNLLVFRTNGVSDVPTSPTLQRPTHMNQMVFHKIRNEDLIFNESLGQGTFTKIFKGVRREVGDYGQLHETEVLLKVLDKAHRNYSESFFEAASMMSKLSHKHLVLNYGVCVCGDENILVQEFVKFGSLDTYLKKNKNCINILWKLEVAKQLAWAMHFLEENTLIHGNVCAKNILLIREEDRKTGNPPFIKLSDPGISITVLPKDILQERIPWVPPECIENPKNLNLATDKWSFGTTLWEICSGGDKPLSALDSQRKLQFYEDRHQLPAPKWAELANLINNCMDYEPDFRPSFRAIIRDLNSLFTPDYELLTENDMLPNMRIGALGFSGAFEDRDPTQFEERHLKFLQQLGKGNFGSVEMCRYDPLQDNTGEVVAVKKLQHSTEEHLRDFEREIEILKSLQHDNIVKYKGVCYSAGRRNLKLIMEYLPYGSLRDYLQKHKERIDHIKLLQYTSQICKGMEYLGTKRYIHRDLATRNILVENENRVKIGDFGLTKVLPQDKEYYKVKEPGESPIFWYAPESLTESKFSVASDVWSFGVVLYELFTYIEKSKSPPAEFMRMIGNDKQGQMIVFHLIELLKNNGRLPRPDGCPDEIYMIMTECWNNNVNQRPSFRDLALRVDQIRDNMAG
Procedure, shortened: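 A 10-point, 3-fold compound series (top 10 μM, 2% DMSO) was tested against 5 nM JAK2 with 10 μM Omnia Y7 substrate and either 1 mM or 25 μM (Km app) ATP. Buffer: pH 7.4 HEPES, MgCl2, Triton X-100, DTT. Sox fluorescence was monitored kinetically for 45 min; IC50 is the concentration giving 50 POC on a 4-parameter fit.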

[4] = molecular target: T4, Human Tyk2 kinase domain (Homo sapiens, UniProt P29597); assay: Tyk2 Inhibition Assay (Omnia kinase fluorescence peptide substrate assay); details: averaged IC50 ranges; assay of Example A; 10 μM (Km app) or 1 mM ATP, 2 nM Tyk2
T4 construct: comprising amino acids 886 to 1187 with 10 additional histidine residues; 10xHis (histidine tag) (C, cleaved yes); made in house
T4 sequence (P29597 886-1187): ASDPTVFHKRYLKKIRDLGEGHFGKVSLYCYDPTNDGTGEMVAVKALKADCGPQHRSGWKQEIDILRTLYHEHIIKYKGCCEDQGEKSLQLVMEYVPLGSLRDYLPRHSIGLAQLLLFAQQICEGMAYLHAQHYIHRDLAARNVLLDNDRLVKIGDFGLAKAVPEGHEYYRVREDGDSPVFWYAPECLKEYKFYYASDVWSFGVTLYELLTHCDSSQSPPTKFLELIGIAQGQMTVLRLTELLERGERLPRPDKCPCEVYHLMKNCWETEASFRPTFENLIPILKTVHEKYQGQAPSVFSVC
Procedure, shortened: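 2 nM His-tag-cleaved kinase domain (aa 886–1187) with 8 μM Omnia Y12 peptide, 10 μM (Km app) or 1 mM ATP, pH 7.4 HEPES/10 mM MgCl2, 2% DMSO. Fluorescence (ex 360/em 485 nm) every 50 s for 45 min; IC50 from 4-parameter fit of POC, top dose 10 μM.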

IC50 [1]	IC50 [2]	IC50 [3]	IC50 [4]	SMILES
> 1000 nM	100 to 1000 nM	100 to 1000 nM	10 to 100 nM	N#CCC(C1CC1)n1cc(-c2nc(-c3cn[nH]c3)cc3nccn23)cn1 (stereo not drawn) [Example 33, 3-(4-(7-(1H-pyrazol-4-yl)imidazo[1,2-c]pyrimidin-5-yl)-1H-pyrazol-1-yl)-3-cyclopropylpropanenitrile]
100 to 1000 nM	100 to 1000 nM	10 to 100 nM	< 10 nM	CC(C)n1cc(-c2cc3nccn3c(-c3cnn(C(CC#N)C4CC4)c3)n2)cn1 (stereo not drawn) [Example 34, 3-Cyclopropyl-3-(4-(7-(1-isopropyl-1H-pyrazol-4-yl)imidazo[1,2-c]pyrimidin-5-yl)-1H-pyrazol-1-yl)propanenitrile]
100 to 1000 nM	100 to 1000 nM	10 to 100 nM	< 10 nM	N#CCC(C1CC1)n1cc(-c2nc(-c3cnn(Cc4cccnc4)c3)cc3nccn23)cn1 (stereo not drawn) [Example 35, 3-cyclopropyl-3-(4-(7-(1-(pyridin-3-ylmethyl)-1H-pyrazol-4-yl)imidazo[1,2-c]pyrimidin-5-yl)-1H-pyrazol-1-yl)propanenitrile]
> 1000 nM	100 to 1000 nM	10 to 100 nM	10 to 100 nM	CC(C)Cn1cc(-c2cc3nccn3c(-c3cnn(C(CC#N)C4CC4)c3)n2)cn1 (stereo not drawn) [Example 37, 3-cyclopropyl-3-(4-(7-(1-isobutyl-1H-pyrazol-4-yl)imidazo[1,2-c]pyrimidin-5-yl)-1H-pyrazol-1-yl)propanenitrile]
100 to 1000 nM	100 to 1000 nM	10 to 100 nM	< 10 nM	N#CCC(C1CC1)n1cc(-c2nc(-c3cnn(C4COC4)c3)cc3nccn23)cn1 (stereo not drawn) [Example 38, 3-Cyclopropyl-3-(4-(7-(1-(oxetan-3-yl)-1H-pyrazol-4-yl)imidazo[1,2-c]pyrimidin-5-yl)-1H-pyrazol-1-yl)propanenitrile]
100 to 1000 nM	10 to 100 nM	10 to 100 nM	< 10 nM	N#CCC(C1CC1)n1cc(-c2nc(-c3cnn(CC(F)(F)F)c3)cc3nccn23)cn1 (stereo not drawn) [Example 39, 3-cyclopropyl-3-(4-(7-(1-(2,2,2-trifluoroethyl)-1H-pyrazol-4-yl)imidazo[1,2-c]pyrimidin-5-yl)-1H-pyrazol-1-yl)propanenitrile]
> 1000 nM	100 to 1000 nM	10 to 100 nM	10 to 100 nM	CC(C)OCCn1cc(-c2cc3nccn3c(-c3cnn(C(CC#N)C4CC4)c3)n2)cn1 (stereo not drawn) [Example 41, 3-cyclopropyl-3-(4-(7-(1-(2-isopropoxyethyl)-1H-pyrazol-4-yl)imidazo[1,2-c]pyrimidin-5-yl)-1H-pyrazol-1-yl]propanenitrile]
> 1000 nM	> 1000 nM	> 1000 nM	100 to 1000 nM	Cc1nnc(-c2cc3nccn3c(-c3cnn(C(CC#N)C4CC4)c3)n2)s1 (stereo not drawn) [Example 45, 3-Cyclopropyl-3-(4-(7-(5-methyl-1,3,4-thiadiazol-2-yl)imidazo[1,2-c]pyrimidin-5-yl)-1H-pyrazol-1-yl)propanenitrile]
100 to 1000 nM	100 to 1000 nM	10 to 100 nM	10 to 100 nM	Cc1ncc(-c2cc3nccn3c(-c3cnn(C(CC#N)C4CC4)c3)n2)s1 (stereo not drawn) [Example 48]

Second part, the compound before the results:

SMILES	IC50 [1]	IC50 [2]	IC50 [3]	IC50 [4]
Cn1cc(-c2cc3nccn3c(-c3cnn(C4(CC#N)CCN(CC(F)(F)F)CC4)c3)n2)cn1 [Example 31, 2-(4-(4-(7-(1-methyl-1H-pyrazol-4-yl)imidazo[1,2-c]pyrimidin-5-yl)-1H-pyrazol-1-yl)-1-(2,2,2-trifluoroethyl)piperidin-4-yl)acetonitrile]	> 1000 nM	100 to 1000 nM	100 to 1000 nM	10 to 100 nM
C[Si](C)(C)CCOCn1cc(-c2cc3nccn3c(-c3cnn(C(CC#N)C4CC4)c3)n2)cn1 (stereo not drawn) [Example 32, 3-cyclopropyl-3-(4-(7-(1-((2-(trimethylsilyl)ethoxy)methyl)-1H-pyrazol-4-yl)imidazo[1,2-c]pyrimidin-5-yl)-1H-pyrazol-1-yl)propanenitrile]	100 to 1000 nM	100 to 1000 nM	10 to 100 nM	10 to 100 nM
N#CCC(C1CC1)n1cc(-c2nc(-c3cnn(C4CCOCC4)c3)cc3nccn23)cn1 (stereo not drawn) [Example 36, 3-cyclopropyl-3-(4-(7-(1-(tetrahydro-2H-pyran-4-yl)-1H-pyrazol-4-yl)imidazo[1,2-c]pyrimidin-5-yl)-1H-pyrazol-1-yl)propanenitrile]	100 to 1000 nM	100 to 1000 nM	10 to 100 nM	< 10 nM
CCn1cc(-c2cc3nccn3c(-c3cnn(C(CC#N)C4CC4)c3)n2)cn1 (stereo not drawn) [Example 40, 3-cyclopropyl-3-(4-(7-(1-ethyl-1H-pyrazol-4-yl)imidazo[1,2-c]pyrimidin-5-yl)-1H-pyrazol-1-yl)propanenitrile]	100 to 1000 nM	100 to 1000 nM	10 to 100 nM	< 10 nM
N#CCC(C1CC1)n1cc(-c2nc(-c3cnn(C4CCC4)c3)cc3nccn23)cn1 (stereo not drawn) [Example 42, 3-(4-(7-(1-cyclobutyl-1H-pyrazol-4-yl)imidazo[1,2-c]pyrimidin-5-yl)-1H-pyrazol-1-yl)-3-cyclopropylpropanenitrile]	100 to 1000 nM	10 to 100 nM	10 to 100 nM	< 10 nM
N#CCC(C1CC1)n1cc(-c2nc(-c3cnco3)cc3nccn23)cn1 (stereo not drawn) [Example 43, 3-cyclopropyl-3-(4-(7-(oxazol-5-yl)imidazo[1,2-c]pyrimidin-5-yl)-1H-pyrazol-1-yl)propanenitrile]	> 1000 nM	> 1000 nM	100 to 1000 nM	10 to 100 nM
CN1CCN(CCn2cc(-c3cc4nccn4c(-c4cnn(C(CC#N)C5CC5)c4)n3)cn2)CC1 (stereo not drawn) [Example 44, 3-cyclopropyl-3-(4-(7-(1-(2-(4-methylpiperazin-1-yl)ethyl)-1H-pyrazol-4-yl)imidazo[1,2-c]pyrimidin-5-yl)-1H-pyrazol-1-yl)propanenitrile]	100 to 1000 nM	100 to 1000 nM	10 to 100 nM	10 to 100 nM
Cc1cn(-c2cc3nccn3c(-c3cnn(C(CC#N)C4CC4)c3)n2)cn1 (stereo not drawn) [Example 46, 3-Cyclopropyl-3-(4-(7-(4-methyl-1H-imidazol-1-yl)imidazo[1,2-c]pyrimidin-5-yl)-1H-pyrazol-1-yl)propanenitrile]	> 1000 nM	> 1000 nM	100 to 1000 nM	10 to 100 nM
N#CCC(C1CC1)n1cc(-c2nc(-c3cncs3)cc3nccn23)cn1 (stereo not drawn) [Example 47, 3-Cyclopropyl-3-(4-(7-(thiazol-5-yl)imidazo[1,2-c]pyrimidin-5-yl)-1H-pyrazol-1-yl)propanenitrile]	> 1000 nM	100 to 1000 nM	100 to 1000 nM	10 to 100 nM
